Data from ChEMBL document CHEMBL1153780, “Synthesis and antibacterial activity of some new thiazole and thiophene derivatives” (2009).
Values after ≈ are worked out from the molar mass of the structure shown.

How the values were obtained:
Type in all cases: functional
Escherichia coli [1] = test: Antibacterial activity against Escherichia coli at 2 mg/ml by agar diffusion method; settings: read-out: DIZ
Bacillus thuringiensis [2] = test: Antibacterial activity against Bacillus thuringiensis at 2 mg/ml by agar diffusion method; settings: read-out: DIZ
Escherichia coli [3] = test: Antibacterial activity against Escherichia coli by twofold serial broth dilution method
Bacillus thuringiensis [4] = test: Antibacterial activity against Bacillus thuringiensis by twofold serial broth dilution method

Q: Which zone of inhibition at 2000 µg/mL (Escherichia coli [1]) does the source give for `COc1ccc(/C=c2\c(=O)s/c(=C(\C#N)C(=O)N3NC(=O)C4C5c6ccccc6C(c6ccccc65)C4C3=O)n2-c2ccccc2)cc1` (stereo unspecified) here?
A: 13 mm

Q: And the zone of inhibition at 2000 µg/mL (Bacillus thuringiensis [2])?
A: 11 mm

Q: Which results are given for `N#C/C(C(=O)N1NC(=O)C2C3c4ccccc4C(c4ccccc43)C2C1=O)=c1\sc(=O)/c(=C2\C(=O)Nc3ccccc32)n1-c1ccccc1` (stereo unspecified)?
A: zone of inhibition at 2000 µg/mL (Escherichia coli [1]): 15 mm; zone of inhibition at 2000 µg/mL (Bacillus thuringiensis [2]): 15 mm

Q: What does the source list for `N#C/C(C(=O)N1NC(=O)C2C3c4ccccc4C(c4ccccc43)C2C1=O)=c1\sc(=O)c(=C2C(=O)c3ccccc3C2=O)n1-c1ccccc1` (stereo unspecified)?
A: MIC (Escherichia coli [3]): 12.5 µg/mL (≈ 18.5 µM); zone of inhibition at 2000 µg/mL (Escherichia coli [1]): 25 mm; MIC (Bacillus thuringiensis [4]): 50 µg/mL (≈ 74.1 µM); zone of inhibition at 2000 µg/mL (Bacillus thuringiensis [2]): 19 mm

Q: `N#C/C(C(=O)N1NC(=O)C2C3c4ccccc4C(c4ccccc43)C2C1=O)=C1\SC=C(c2ccccc2)N1c1ccccc1` (stereo unspecified) was tested. Which MIC (Escherichia coli [3]) did it give?
A: 6 µg/mL (≈ 10.1 µM)

Q: And the zone of inhibition at 2000 µg/mL (Escherichia coli [1])?
A: 40 mm

Q: And the MIC (Bacillus thuringiensis [4])?
A: 6 µg/mL (≈ 10.1 µM)

Q: And the zone of inhibition at 2000 µg/mL (Bacillus thuringiensis [2])?
A: 39 mm

Q: For `Nc1c(C(=O)c2ccccc2)sc(Nc2ccccc2)c1C(=O)N1NC(=O)C2C3c4ccccc4C(c4ccccc43)C2C1=O` (stereo unspecified), which MIC (Escherichia coli [3]) is on record?
A: 12.5 µg/mL (≈ 20.5 µM)

Q: What about the zone of inhibition at 2000 µg/mL (Escherichia coli [1]) of the same compound?
A: 20 mm

Q: What about the MIC (Bacillus thuringiensis [4]) of the same compound?
A: 50 µg/mL (≈ 81.9 µM)

Q: And the zone of inhibition at 2000 µg/mL (Bacillus thuringiensis [2])?
A: 17 mm

Q: For `N#C/C(C(=O)N1NC(=O)C2C3c4ccccc4C(c4ccccc43)C2C1=O)=C(\S)Nc1ccccc1` (stereo unspecified), which MIC (Escherichia coli [3]) is on record?
A: 12.5 µg/mL (≈ 25.4 µM)

Q: What about the zone of inhibition at 2000 µg/mL (Escherichia coli [1]) of the same compound?
A: 22 mm

Q: And the MIC (Bacillus thuringiensis [4])?
A: 12.5 µg/mL (≈ 25.4 µM)

Q: And the zone of inhibition at 2000 µg/mL (Bacillus thuringiensis [2])?
A: 22 mm

Q: How did the MIC (Escherichia coli [3]) turn out when `N#C/C(C(=O)N1NC(=O)C2C3c4ccccc4C(c4ccccc43)C2C1=O)=C1\SCC(=O)N1c1ccccc1` (stereo unspecified) was run?
A: 12.5 µg/mL (≈ 23.5 µM)

Q: And the zone of inhibition at 2000 µg/mL (Escherichia coli [1])?
A: 26 mm

Q: What about the MIC (Bacillus thuringiensis [4]) of the same compound?
A: 12.5 µg/mL (≈ 23.5 µM)

Q: What about the zone of inhibition at 2000 µg/mL (Bacillus thuringiensis [2]) of the same compound?
A: 24 mm

Q: With `CN(C)/C=N/N1C(=O)C2C3c4ccccc4C(c4ccccc43)C2C1=O` (stereo unspecified) as the compound, how does the MIC (Escherichia coli [3]) read?
A: 12.5 µg/mL (≈ 36.2 µM)

Q: What about the zone of inhibition at 2000 µg/mL (Escherichia coli [1]) of the same compound?
A: 21 mm

Q: And the MIC (Bacillus thuringiensis [4])?
A: 50 µg/mL (≈ 145 µM)

Q: What about the zone of inhibition at 2000 µg/mL (Bacillus thuringiensis [2]) of the same compound?
A: 20 mm

Q: Which results are given for `CC(=O)c1sc(Nc2ccccc2)c(C(=O)N2NC(=O)C3C4c5ccccc5C(c5ccccc54)C3C2=O)c1N` (stereo unspecified)?
A: zone of inhibition at 2000 µg/mL (Escherichia coli [1]): 13 mm; zone of inhibition at 2000 µg/mL (Bacillus thuringiensis [2]): 15 mm

Q: How did the MIC (Escherichia coli [3]) turn out when `N#Cc1sc(Nc2ccccc2)c(C(=O)N2NC(=O)C3C4c5ccccc5C(c5ccccc54)C3C2=O)c1N` (stereo unspecified) was run?
A: 12.5 µg/mL (≈ 23.5 µM)

Q: What about the zone of inhibition at 2000 µg/mL (Escherichia coli [1]) of the same compound?
A: 20 mm

Q: `N#C/C(C(=O)N1NC(=O)C2C3c4ccccc4C(c4ccccc43)C2C1=O)=C1/Nc2ccccc2S1` (stereo unspecified) was tested. Which MIC (Escherichia coli [3]) did it give?
A: 12.5 µg/mL (≈ 25.5 µM)

Q: What about the zone of inhibition at 2000 µg/mL (Escherichia coli [1]) of the same compound?
A: 26 mm

Q: And the MIC (Bacillus thuringiensis [4])?
A: 6 µg/mL (≈ 12.2 µM)

Q: And the zone of inhibition at 2000 µg/mL (Bacillus thuringiensis [2])?
A: 30 mm

Q: For `CC1=CS/C(=C(\C#N)C(=O)N2NC(=O)C3C4c5ccccc5C(c5ccccc54)C3C2=O)N1c1ccccc1` (stereo unspecified), which MIC (Escherichia coli [3]) is on record?
A: 12.5 µg/mL (≈ 23.6 µM)

Q: And the zone of inhibition at 2000 µg/mL (Escherichia coli [1])?
A: 30 mm

Q: What about the MIC (Bacillus thuringiensis [4]) of the same compound?
A: 12.5 µg/mL (≈ 23.6 µM)

Q: What about the zone of inhibition at 2000 µg/mL (Bacillus thuringiensis [2]) of the same compound?
A: 28 mm

Q: How did the MIC (Escherichia coli [3]) turn out when `Cc1csc(N2NC(=O)C3C4c5ccccc5C(c5ccccc54)C3C2=O)n1` (stereo unspecified) was run?
A: 50 µg/mL (≈ 129 µM)

Q: What about the zone of inhibition at 2000 µg/mL (Escherichia coli [1]) of the same compound?
A: 16 mm

Q: What about the MIC (Bacillus thuringiensis [4]) of the same compound?
A: 6 µg/mL (≈ 15.5 µM)

Q: What about the zone of inhibition at 2000 µg/mL (Bacillus thuringiensis [2]) of the same compound?
A: 40 mm

Q: Which results are given for `N#C/C(C(=O)N1NC(=O)C2C3c4ccccc4C(c4ccccc43)C2C1=O)=C1\SC(=O)CN1c1ccccc1` (stereo unspecified)?
A: zone of inhibition at 2000 µg/mL (Escherichia coli [1]): 18 mm; zone of inhibition at 2000 µg/mL (Bacillus thuringiensis [2]): 17 mm

Q: With `O=C1NN(c2nc(-c3ccccc3)cs2)C(=O)C2C3c4ccccc4C(c4ccccc43)C12` (stereo unspecified) as the compound, how does the MIC (Escherichia coli [3]) read?
A: 50 µg/mL (≈ 111 µM)

Q: What about the zone of inhibition at 2000 µg/mL (Escherichia coli [1]) of the same compound?
A: 15 mm

Q: What about the MIC (Bacillus thuringiensis [4]) of the same compound?
A: 12.5 µg/mL (≈ 27.8 µM)

Q: And the zone of inhibition at 2000 µg/mL (Bacillus thuringiensis [2])?
A: 23 mm

Q: What does the source list for `O=C1CSC(N2NC(=O)C3C4c5ccccc5C(c5ccccc54)C3C2=O)=N1` (stereo unspecified)?
A: MIC (Escherichia coli [3]): 12.5 µg/mL (≈ 32.1 µM); zone of inhibition at 2000 µg/mL (Escherichia coli [1]): 26 mm; MIC (Bacillus thuringiensis [4]): 12.5 µg/mL (≈ 32.1 µM); zone of inhibition at 2000 µg/mL (Bacillus thuringiensis [2]): 24 mm

Q: For `O=C1NN(c2nc(-c3ccccc3)c(Br)s2)C(=O)C2C3c4ccccc4C(c4ccccc43)C12` (stereo unspecified), which zone of inhibition at 2000 µg/mL (Escherichia coli [1]) is on record?
A: 12 mm

Q: What does the source list for `N#C/C(C(=O)N1NC(=O)C2C3c4ccccc4C(c4ccccc43)C2C1=O)=C1\SCCN1c1ccccc1` (stereo unspecified)?
A: MIC (Escherichia coli [3]): 50 µg/mL (≈ 96.4 µM); zone of inhibition at 2000 µg/mL (Escherichia coli [1]): 15 mm; MIC (Bacillus thuringiensis [4]): 12.5 µg/mL (≈ 24.1 µM); zone of inhibition at 2000 µg/mL (Bacillus thuringiensis [2]): 22 mm

Q: Which MIC (Escherichia coli [3]) does the source give for `N#C/C(C(=O)N1NC(=O)C2C3c4ccccc4C(c4ccccc43)C2C1=O)=C1\SCCCN1c1ccccc1` (stereo unspecified) here?
A: 12.5 µg/mL (≈ 23.5 µM)

Q: What about the zone of inhibition at 2000 µg/mL (Escherichia coli [1]) of the same compound?
A: 25 mm

Q: What about the MIC (Bacillus thuringiensis [4]) of the same compound?
A: 50 µg/mL (≈ 93.9 µM)

Q: And the zone of inhibition at 2000 µg/mL (Bacillus thuringiensis [2])?
A: 19 mm

Q: With `CC1(C)S[C@@H]2[C@H](NC(=O)[C@H](N)c3ccccc3)C(=O)N2[C@H]1C(=O)O` [AMPICILLIN] as the compound, how does the MIC (Escherichia coli [3]) read?
A: 12.5 µg/mL (≈ 35.8 µM)

Q: What about the zone of inhibition at 2000 µg/mL (Escherichia coli [1]) of the same compound?
A: 19 mm

Q: What about the MIC (Bacillus thuringiensis [4]) of the same compound?
A: 12.5 µg/mL (≈ 35.8 µM)

Q: And the zone of inhibition at 2000 µg/mL (Bacillus thuringiensis [2])?
A: 18 mm

Q: With `O=C(N[C@H](CO)[C@H](O)c1ccc([N+](=O)[O-])cc1)C(Cl)Cl` [CHLORAMPHENICOL] as the compound, how does the MIC (Escherichia coli [3]) read?
A: 12.5 µg/mL (≈ 38.7 µM)

Q: What about the zone of inhibition at 2000 µg/mL (Escherichia coli [1]) of the same compound?
A: 19 mm

Q: What about the MIC (Bacillus thuringiensis [4]) of the same compound?
A: 12.5 µg/mL (≈ 38.7 µM)

Q: And the zone of inhibition at 2000 µg/mL (Bacillus thuringiensis [2])?
A: 23 mm
